This passage reports IC50 results from ChEMBL document CHEMBL4346757, “Synthesis and biological evaluation of 7-methoxy-1-(3,4,5-trimethoxyphenyl)-4,5-dihydro-2H-benzo[e]indazoles as new colchicine site inhibitors” (Bioorg Med Chem Lett, 2019).

pIC50: −log10 of the molar value.

The test system of one assay is COLO 205. As to the kind of experiment: Antiproliferative activity against human COLO205 cells assessed as reduction in cell viability by MTT assay. It counts as functional, cell-based.
A further assay deals with Tubulin (Bos taurus, UniProt Q6B856+Q862L2+Q862F3). Put plainly: Inhibition of bovine brain tubulin polymerization measured every 1 min for 60 mins by turbidimetry based microplate reader analysis.
The test system of the next assay is HCT-116. Put plainly: Antiproliferative activity against human HCT116 cells assessed as reduction in cell viability by MTT assay. It counts as functional, cell-based.

The term pIC50 denotes −log10 of the IC50, conventionally taken in molar units. The IC50 is the point on the concentration scale where inhibition reaches its midpoint. High values mean weaker potency, low ones greater potency.

Consider `COc1ccc(-c2[nH]nc3c2-c2cc(OC)c(OC)c(OC)c2CC3)cc1`, for which the figures for the pIC50 in the assay with COLO 205 and at Tubulin (read-out: IC50) were 7.43 and 5.18, respectively.
As to `COc1ccc2c(c1)CCc1nn(-c3ccccc3)c(-c3cc(OC)c(OC)c(OC)c3)c1-2`, the pIC50 was less than 5.00 in the assay with COLO 205 and 5.28 in the assay on HCT-116. Also, at Tubulin, the concentration for half-maximal inhibition (IC50) is greater than 10000 nM.
Taken in the same sequence, the figures for `COc1ccc2c(c1)CCc1nn(CCO)c(-c3cc(OC)c(OC)c(OC)c3)c1-2` were 6.25, 5.92 and greater than 10000 nM.
Taken in the same sequence, the figures for `COc1ccc2c(c1)CCc1nn(C)c(-c3cc(OC)c(OC)c(OC)c3)c1-2` were 7.72, 9.00 and 1500 nM.
Taken in the same sequence, the figures for `CCOC(=O)Cn1nc2c(c1-c1cc(OC)c(OC)c(OC)c1)-c1ccc(OC)cc1CC2` were 5.08, less than 5.00 and greater than 10000 nM.
`COc1ccc(/C=C\c2cc(OC)c(OC)c(OC)c2)cc1O` [COMBRETASTATIN A4]: the pIC50 in the assay with COLO 205 and with HCT-116 was 9.00 each time.
